Test results from PubChem BioAssay (NCI).
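Where inhibition never reached the appropriate level, the endpoint shown equals the highest concentration tested. Otherwise, values were interpolated linearly from a five-concentration, 48-hour dose response in 96-well plates. The concentration for 50% growth inhibition is given as GI50. TGI: total growth inhibition.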

What was measured:
Test in all cases: NCI-60 cell line screen, 48 h
[1] = test system: DU-145 prostate
[2] = test system: MDA-MB-435
[3] = test system: IGROV1 ovarian
[4] = test system: OVCAR-5 ovarian
[5] = test system: BT-549 breast
[6] = test system: UO-31 renal
[7] = test system: MALME-3M melanoma
[8] = test system: SK-MEL-2 melanoma
[9] = test system: A549 NSCLC
[10] = test system: SF-295 CNS
[11] = test system: SK-MEL-28 melanoma
[12] = test system: 786-0 renal
[13] = test system: CCRF-CEM leukemia
[14] = test system: HS 578T breast
[15] = test system: SN12C renal
[16] = test system: CAKI-1 renal
[17] = test system: RPMI-8226 leukemia
[18] = test system: OVCAR-8 ovarian
[19] = test system: HCC-2998 colon
[20] = test system: HOP-92 NSCLC
[21] = test system: SR leukemia
[22] = test system: HOP-62 NSCLC
[23] = test system: LOX IMVI melanoma
[24] = test system: HT29 colon
[25] = test system: MDA-MB-231 breast
[26] = test system: OVCAR-4 ovarian
[27] = test system: NCI-H522 lung
[28] = test system: SF-539 CNS
[29] = test system: KM12 colon
[30] = test system: ACHN renal
[31] = test system: UACC-257 melanoma
[32] = test system: HL-60(TB) leukemia
[33] = test system: PC-3 prostate
[34] = test system: NCI-H226 lung
[35] = test system: HCT-15 colon
[36] = test system: OVCAR-3 ovarian
[37] = test system: U251 CNS
[38] = test system: K-562 leukemia
[39] = test system: COLO 205 colon
[40] = test system: TK-10 renal
[41] = test system: UACC-62 melanoma
[42] = test system: SNB-75 CNS
[43] = test system: HCT-116 colon
[44] = test system: A498 renal
[45] = test system: EKVX NSCLC
[46] = test system: SW-620 colon
[47] = test system: SK-OV-3 ovarian
[48] = test system: NCI/ADR-RES ovarian
[49] = test system: T-47D breast
[50] = test system: RXF 393 renal
[51] = test system: NCI-H23 lung
[52] = test system: M14 melanoma

Q: COc1cccc2c(Nc3ccc(C(=O)O)cc3)cc(-c3ccccc3)nc12 was tested. Which GI50 [1] did it give?
A: > 100 µM

Q: And the TGI [1]?
A: > 100 µM

Q: What about the GI50 [2] of the same molecule?
A: > 100 µM

Q: What about the TGI [2] of the same molecule?
A: > 100 µM

Q: What about the GI50 [3] of the same molecule?
A: > 100 µM

Q: What about the TGI [3] of the same molecule?
A: > 100 µM

Q: What about the GI50 [4] of the same molecule?
A: > 100 µM

Q: And the TGI [4]?
A: > 100 µM

Q: What about the GI50 [5] of the same molecule?
A: > 100 µM

Q: And the TGI [5]?
A: > 100 µM

Q: What about the GI50 [6] of the same molecule?
A: > 100 µM

Q: And the TGI [6]?
A: > 100 µM

Q: What about the GI50 [7] of the same molecule?
A: > 100 µM

Q: What about the TGI [7] of the same molecule?
A: > 100 µM

Q: And the GI50 [8]?
A: > 100 µM

Q: What about the TGI [8] of the same molecule?
A: > 100 µM

Q: What about the GI50 [9] of the same molecule?
A: > 100 µM

Q: And the TGI [9]?
A: > 100 µM

Q: What about the GI50 [10] of the same molecule?
A: > 100 µM

Q: And the TGI [10]?
A: > 100 µM

Q: And the GI50 [11]?
A: > 100 µM

Q: What about the TGI [11] of the same molecule?
A: > 100 µM

Q: And the GI50 [12]?
A: > 100 µM

Q: What about the TGI [12] of the same molecule?
A: > 100 µM

Q: What about the GI50 [13] of the same molecule?
A: > 100 µM

Q: What about the TGI [13] of the same molecule?
A: > 100 µM

Q: What about the GI50 [14] of the same molecule?
A: > 100 µM

Q: What about the TGI [14] of the same molecule?
A: > 100 µM

Q: And the GI50 [15]?
A: > 100 µM

Q: And the TGI [15]?
A: > 100 µM

Q: What about the GI50 [16] of the same molecule?
A: > 100 µM

Q: What about the TGI [16] of the same molecule?
A: > 100 µM

Q: What about the GI50 [17] of the same molecule?
A: > 100 µM

Q: And the TGI [17]?
A: > 100 µM

Q: What about the GI50 [18] of the same molecule?
A: > 100 µM

Q: And the TGI [18]?
A: > 100 µM

Q: What about the GI50 [19] of the same molecule?
A: > 100 µM

Q: And the TGI [19]?
A: > 100 µM

Q: And the GI50 [20]?
A: 39.4 µM

Q: What about the TGI [20] of the same molecule?
A: > 100 µM

Q: And the GI50 [21]?
A: > 100 µM

Q: And the TGI [21]?
A: > 100 µM

Q: And the GI50 [22]?
A: > 100 µM

Q: And the TGI [22]?
A: > 100 µM

Q: And the GI50 [23]?
A: > 100 µM

Q: And the TGI [23]?
A: > 100 µM

Q: What about the GI50 [24] of the same molecule?
A: > 100 µM

Q: What about the TGI [24] of the same molecule?
A: > 100 µM

Q: What about the GI50 [25] of the same molecule?
A: > 100 µM

Q: And the TGI [25]?
A: > 100 µM

Q: And the GI50 [26]?
A: > 100 µM

Q: And the TGI [26]?
A: > 100 µM

Q: And the GI50 [27]?
A: > 100 µM

Q: What about the TGI [27] of the same molecule?
A: > 100 µM

Q: And the GI50 [28]?
A: > 100 µM

Q: And the TGI [28]?
A: > 100 µM

Q: And the GI50 [29]?
A: > 100 µM

Q: What about the TGI [29] of the same molecule?
A: > 100 µM

Q: And the GI50 [30]?
A: > 100 µM

Q: And the TGI [30]?
A: > 100 µM

Q: What about the GI50 [31] of the same molecule?
A: > 100 µM

Q: What about the TGI [31] of the same molecule?
A: > 100 µM

Q: What about the GI50 [32] of the same molecule?
A: > 100 µM

Q: And the TGI [32]?
A: > 100 µM

Q: And the GI50 [33]?
A: > 100 µM

Q: What about the TGI [33] of the same molecule?
A: > 100 µM

Q: What about the GI50 [34] of the same molecule?
A: > 100 µM

Q: What about the TGI [34] of the same molecule?
A: > 100 µM

Q: And the GI50 [35]?
A: > 100 µM

Q: What about the TGI [35] of the same molecule?
A: > 100 µM

Q: And the GI50 [36]?
A: > 100 µM

Q: And the TGI [36]?
A: > 100 µM

Q: What about the GI50 [37] of the same molecule?
A: > 100 µM

Q: And the TGI [37]?
A: > 100 µM

Q: What about the GI50 [38] of the same molecule?
A: > 100 µM

Q: And the TGI [38]?
A: > 100 µM

Q: What about the GI50 [39] of the same molecule?
A: > 100 µM

Q: What about the TGI [39] of the same molecule?
A: > 100 µM

Q: What about the GI50 [40] of the same molecule?
A: > 100 µM

Q: What about the TGI [40] of the same molecule?
A: > 100 µM

Q: And the GI50 [41]?
A: > 100 µM

Q: What about the TGI [41] of the same molecule?
A: > 100 µM

Q: And the GI50 [42]?
A: 72.3 µM

Q: And the TGI [42]?
A: > 100 µM

Q: And the GI50 [43]?
A: > 100 µM

Q: And the TGI [43]?
A: > 100 µM

Q: What about the GI50 [44] of the same molecule?
A: > 100 µM

Q: What about the TGI [44] of the same molecule?
A: > 100 µM

Q: And the GI50 [45]?
A: > 100 µM

Q: What about the TGI [45] of the same molecule?
A: > 100 µM

Q: What about the GI50 [46] of the same molecule?
A: > 100 µM

Q: What about the TGI [46] of the same molecule?
A: > 100 µM

Q: What about the GI50 [47] of the same molecule?
A: > 100 µM

Q: And the TGI [47]?
A: > 100 µM

Q: And the GI50 [48]?
A: > 100 µM

Q: What about the TGI [48] of the same molecule?
A: > 100 µM

Q: What about the GI50 [49] of the same molecule?
A: 84.5 µM

Q: And the TGI [49]?
A: > 100 µM

Q: And the GI50 [50]?
A: > 100 µM

Q: What about the TGI [50] of the same molecule?
A: > 100 µM

Q: And the GI50 [51]?
A: > 100 µM

Q: What about the TGI [51] of the same molecule?
A: > 100 µM

Q: And the GI50 [52]?
A: > 100 µM

Q: And the TGI [52]?
A: > 100 µM
